In patent publication US7868006B2, “Heterocyclic substituted piperazines with CXCR3 antagonist activity” (Schering Corporation, priority 2005, dated 2011):

Biological target: T1, human CXCR3 (N-delta 4) (Homo sapiens, UniProt P49682)
T1 construct: CD8 leader (N); Flag tag (N); expressed in transfected cells; host or cells: mouse pro-B Ba/F3 cells, stably transfected with pME18Sneo-hCXCR3 (N-delta 4); membrane preparation
T1 sequence (P49682 5-368 limits assumed): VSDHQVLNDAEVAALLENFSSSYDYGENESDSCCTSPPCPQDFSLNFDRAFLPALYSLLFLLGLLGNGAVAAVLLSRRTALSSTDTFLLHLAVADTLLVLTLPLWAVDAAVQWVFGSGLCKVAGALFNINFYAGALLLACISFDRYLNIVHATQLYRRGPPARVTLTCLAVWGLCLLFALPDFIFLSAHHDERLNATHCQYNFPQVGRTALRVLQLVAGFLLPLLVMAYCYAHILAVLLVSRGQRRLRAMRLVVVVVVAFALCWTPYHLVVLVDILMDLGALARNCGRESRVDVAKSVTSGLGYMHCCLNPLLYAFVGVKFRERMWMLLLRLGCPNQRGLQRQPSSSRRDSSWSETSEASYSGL
Assay: Human CXCR3 (N-delta 4) Scintillation Proximity Assay (SPA), [125I] IP-10 binding
Details: IC50 rating; Ba/F3-hCXCR3 (N-delta 4) membranes, 25 pM [125I] IP-10; read-out: IC50
Outline: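 Membranes from mouse Ba/F3 pro-B cells stably expressing Flag-tagged human CXCR3 (N-delta 4), 2 μg per point, bound to WGA SPA beads. Compound titrations competed with 25 pM [125I] IP-10 for 3 hr at room temperature in HEPES buffer with Ca2+, Mg2+, NaCl, 1.0% BSA; bead-bound radioactivity counted, […] values reported.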

SMILES | IC50 [nM]
CC[C@H]1CN(c2ncc(-c3nc[nH]n3)nc2C)[C@H](C)CN1C1CCN(Cc2ccc(OC(F)(F)F)cc2)CC1 [Compound 148] | < 25
CCNc1nnc(-c2cnc(N3CCN(C4CCN(C(=O)c5ccc(Cl)s5)CC4)[C@@H](CC)C3)c(C)n2)o1 [Compound 149] | < 25
CC[C@H]1CN(c2ncc(C3=NCCN3)nc2C)[C@H](C)CN1C1CCN(Cc2ccc(OC(F)(F)F)cc2)CC1 [Compound 150] | < 25
CC[C@H]1CN(c2ncc(-c3nnc(C)o3)nc2Cl)CCN1C1CCN(C(=O)c2ccc(Cl)nc2N)CC1 [Compound 151] | < 25
CCNc1nnc(-c2cnc(N3C[C@H](CC)N(C4CCN(C(=O)c5ccc(OC)cc5)CC4)C[C@H]3C)c(C)n2)o1 [Compound 152] | 25 to 100
CCNc1nnc(-c2cnc(N3CCN(C4CCN(C(=O)c5ccc(CC)nc5N)CC4)[C@@H](CC)C3)c(C)n2)o1 [Compound 153] | 25 to 100
CC[C@H]1CN(c2ncc(-c3nnc[nH]3)nc2C(F)(F)F)CCN1C1CCN(C(=O)c2ccc(Cl)cc2)CC1 [Compound 154] | < 25
CCNc1nnc(-c2cnc(N3CCN(C4CCN(C(=O)c5ccc(Cl)c(C)c5)CC4)[C@@H](CC)C3)c(C)n2)o1 [Compound 155] | < 25
CCNc1nnc(-c2cnc(N3CCN(C4CCN(C(=O)c5ccc(Cl)cc5C)CC4)[C@@H](CC)C3)c(C)n2)o1 [Compound 156] | < 25
CCNc1nnc(-c2nc(C)c(N3CCN(C4CCN(C(=O)c5ccc(Cl)cc5)CC4)[C@@H](CC)C3)nc2C)o1 [Compound 157] | < 25
CCNc1nnc(-c2cnc(N3CCN(C4CCN(C(=O)c5ccc(Cl)cc5)CC4)[C@@H](CC)C3)c(CC)n2)o1 [Compound 158] | < 25
CC[C@H]1CN(c2ncc(-c3nnc(NC(C)C)o3)nc2C)CCN1C1CCN(C(=O)c2ccc(F)c(F)c2)CC1 [Compound 159] | < 25
CCNc1nnc(-c2cnc(N3C[C@H](CC)N(C4CCN(C(=O)c5ccc(F)c(F)c5)CC4)C[C@H]3C)c(C)n2)o1 [Compound 160] | < 25
CC[C@H]1CN(c2ncc(-c3nnc(NC)o3)nc2C)[C@H](C)CN1C1CCN(C(=O)c2ccc(Cl)nc2N)CC1 [Compound 161] | < 25
CCNc1nnc(-c2cnc(N3CCN(C4CCN([C@@H](CO)c5ccc(Cl)cc5)CC4)[C@@H](CC)C3)c(C)n2)o1 [Compound 162] | < 25
CCNc1nnc(-c2cnc(N3CCN(C4CCN([C@H](CO)c5ccc(Cl)cc5)CC4)[C@@H](CC)C3)c(C)n2)o1 [Compound 163] | < 25
CCNc1nnc(-c2cnc(N3CCN(C4CCN(C(=O)c5ccc(Cl)c(F)c5)CC4)[C@@H](CC)C3)c(C)n2)o1 [Compound 164] | < 25
CCNc1nnc(-c2cnc(N3CCN(C4CCN(C(=O)c5ccc(Cl)cc5F)CC4)[C@@H](CC)C3)c(C)n2)o1 [Compound 165] | < 25
CCNc1nnc(-c2cnc(N3CCN(C4CCN(Cc5ccc(C(F)(F)F)cc5)CC4)[C@@H](CC)C3)c(C)n2)o1 [Compound 166] | < 25
CC[C@H]1CN(c2ncc(-c3nnc(N)o3)nc2C)[C@H](C)CN1C1CCN(Cc2ccc(OC(F)(F)F)cc2)CC1 [Compound 167] | < 25
CCNc1nnc(-c2cnc(N3C[C@H](CC)N(C4CCN(Cc5ccc(Cl)cc5O)CC4)C[C@H]3C)c(C)n2)o1 [Compound 168] | < 25
CCNc1nnc(-c2cnc(N3CCN(C4CCN(CCC(=O)c5ccc(Cl)cc5)CC4)[C@@H](CC)C3)c(C)n2)o1 [Compound 169] | < 25
CC[C@H]1CN(c2ncc(-c3nnc(N)o3)nc2C)[C@H](C)CN1C1CCN([C@H](C(=O)OC)c2ccc(Cl)cc2)CC1 [Compound 170] | 25 to 100
CC[C@H]1CN(c2ncc(-c3nnc(NC(C)C)o3)nc2C)CCN1C1CCN(C(=O)c2ccc(Cl)nc2N)CC1 [Compound 171] | < 25
CCNc1nnc(-c2cnc(N3CCN(C4CCN(C(=O)c5ccc(Cl)nc5N)CC4)[C@@H](CC)C3)c(CC)n2)o1 [Compound 173] | < 25
CCNc1nnc(-c2nc(C)c(N3CCN(C4CCN(C(=O)c5ccc(Cl)nc5N)CC4)[C@@H](CC)C3)nc2N)o1 [Compound 174] | < 25
